Ten compounds from patent publication US12492173B2, “Herbicidal substituted N-tetrazolyl aryl carboxamides” (Bayer Aktiengesellschaft, priority 2019, dated 2025) can be followed below.

Common to all, as to assay type: in vivo
One test has as its system Echinochloa crus-galli. The test can be described thus: Pre-emergence herbicidal action, ECHCG. The note with it: dosage 320 g/ha, scored visually after 3 weeks vs untreated controls (100% = plants have died). The essentials:
(§1)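 Visual scoring after 3 weeks in the greenhouse, relative to untreated pots, gave percent activity, where 100% means dead plants and 0% equals controls. Treatment was a pre-emergence soil-surface spray of WP or EC formulations in water (600 to 800 l/ha, 0.2% wetting agent) over seeds covered in sandy loam.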

In another test the test system is Avena fatua. The experiment in a line: Post-emergence herbicidal action, AVEFA. Further details: key: % herbicidal action vs untreated; 100 = plants died, 0 = like control. In outline:
(§2)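 Values are visual estimates of herbicidal action, from 0% (as untreated) to 100% (dead), made about 3 weeks after plants at one-leaf stage in sandy loam were sprayed with the formulated compound.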

A further test deals with Viola tricolor. The test can be described thus: Pre-emergence herbicidal action, VIOTR. The note with it: dosage 320 g/ha, scored visually after 3 weeks vs untreated controls (100% = plants have died). In outline:
as §1

For the next test, the system named is Veronica persica. The test can be described thus: Post-emergence herbicidal action, VERPE. Further details: key: % herbicidal action vs untreated; 100 = plants died, 0 = like control. The essentials: as §2
In another test the test system is Alopecurus myosuroides. The experiment in a line: Post-emergence herbicidal action, ALOMY. Further details: key: % herbicidal action vs untreated; 100 = plants died, 0 = like control. The essentials: as §2
The test system of a further test is Setaria viridis. The experiment in a line: Post-emergence herbicidal action, SETVI. Further details: key: % herbicidal action vs untreated; 100 = plants died, 0 = like control. In outline: as §2

As to `CCn1nnnc1NC(=O)c1ccc(C(F)(F)F)c(CSC)c1Br` [Example 2-380], in the test on Echinochloa crus-galli, the “herbicidal activity ECHCG” value was 100%. In addition, in the test on Avena fatua (post-emergence, dosage 80 g/ha), the “herbicidal action AVEFA” value stood at 100%. Also, the “herbicidal activity VIOTR” value with Viola tricolor amounted to 100%. Also, the “herbicidal action VERPE” value with Veronica persica (post-emergence, dosage 80 g/ha) was 100%. Moreover, the “herbicidal action ALOMY” value in the test on Alopecurus myosuroides (post-emergence, dosage 80 g/ha) was 80%. In addition, the “herbicidal action SETVI” value with Setaria viridis (post-emergence, dosage 80 g/ha) was determined as 100%.
With `CCCn1nnnc1NC(=O)c1ccc(C(F)(F)F)c(C[S+](C)[O-])c1Br` (stereo not drawn) [Example 3-381], the “herbicidal activity ECHCG” value in the test on Echinochloa crus-galli was 100%. Besides, the “herbicidal action AVEFA” value in the test on Avena fatua (post-emergence, dosage 80 g/ha) is recorded as 100%. For the same compound, in the test with Viola tricolor, the “herbicidal activity VIOTR” value was determined as 100%. Moreover, the “herbicidal action VERPE” value with Veronica persica (post-emergence, dosage 80 g/ha) was found to be 100%. Further, the “herbicidal action ALOMY” value in the test on Alopecurus myosuroides (post-emergence, dosage 80 g/ha) is reported as 80%. The “herbicidal action SETVI” value with Setaria viridis (post-emergence, dosage 80 g/ha) was 90%.
For `Cn1nnnc1NC(=O)c1ccc(C(F)(F)F)c(C[S+](C)[O-])c1Cl` (racemic) [Example 1-297], the “herbicidal activity ECHCG” value with Echinochloa crus-galli was 100%. Further, the “herbicidal action AVEFA” value in the test with Avena fatua (post-emergence, dosage 80 g/ha) came to 100%. Moreover, the “herbicidal activity VIOTR” value in the test on Viola tricolor is given as 100%. For the same compound, the “herbicidal action VERPE” value in the test on Veronica persica (post-emergence, dosage 80 g/ha) is given as 100%. For the same compound, the “herbicidal action ALOMY” value with Alopecurus myosuroides (post-emergence, dosage 80 g/ha) stood at 100%. Besides, in the test on Setaria viridis (post-emergence, dosage 80 g/ha), the “herbicidal action SETVI” value was 80%.
Turning to `CCSCc1c(C(F)(F)F)ccc(C(=O)Nc2nnnn2C)c1C` [Example 1-86], the “herbicidal activity ECHCG” value in the test with Echinochloa crus-galli came out at 100%. Besides, in the test on Avena fatua (post-emergence, dosage 80 g/ha), the “herbicidal action AVEFA” value came to 100%. In the test on Viola tricolor, the “herbicidal activity VIOTR” value was 100%. Moreover, the “herbicidal action VERPE” value in the test on Veronica persica (post-emergence, dosage 80 g/ha) is recorded as 90%. Moreover, the “herbicidal action ALOMY” value in the test with Alopecurus myosuroides (post-emergence, dosage 80 g/ha) is 80%. The “herbicidal action SETVI” value in the test with Setaria viridis (post-emergence, dosage 80 g/ha) is on record as 80%.
Consider `C=CCSCc1c(C(F)(F)F)ccc(C(=O)Nc2nnnn2C)c1Cl` [Example 1-308], for which the “herbicidal activity ECHCG” value in the test with Echinochloa crus-galli came out at 100%. The “herbicidal action AVEFA” value in the test with Avena fatua (post-emergence, dosage 80 g/ha) is reported as 100%. Moreover, the “herbicidal activity VIOTR” value in the test on Viola tricolor is given as 100%. The “herbicidal action VERPE” value in the test with Veronica persica (post-emergence, dosage 80 g/ha) is given as 80%. Moreover, the “herbicidal action ALOMY” value with Alopecurus myosuroides (post-emergence, dosage 80 g/ha) was 100%. Also, the “herbicidal action SETVI” value with Setaria viridis (post-emergence, dosage 80 g/ha) came out at 100%.
Regarding `CCSCc1c(C(F)F)ccc(C(=O)Nc2nnnn2C)c1SCC` [Example 1-191], the “herbicidal activity ECHCG” value with Echinochloa crus-galli amounted to 100%. Also, in the test with Avena fatua (Dosage 80 g/ha), the “herbicidal action AVEFA” value was found to be 80. The “herbicidal activity VIOTR” value in the test on Viola tricolor turned out to be 100%. In the test with Veronica persica (Dosage 80 g/ha), the “herbicidal action VERPE” value is on record as 100. Also, the “herbicidal action ALOMY” value in the test with Alopecurus myosuroides (Dosage 80 g/ha) was determined as 80. In addition, in the test with Setaria viridis (Dosage 80 g/ha), the “herbicidal action SETVI” value was determined as 100.
Regarding `CSCc1c(C(F)(F)F)ccc(C(=O)Nc2nnnn2C)c1Cl` [Example 1-296], in the test on Echinochloa crus-galli, the “herbicidal activity ECHCG” value amounted to 100%. Moreover, in the test on Avena fatua (post-emergence, dosage 80 g/ha), the “herbicidal action AVEFA” value is given as 90%. In addition, the “herbicidal activity VIOTR” value in the test with Viola tricolor was found to be 100%. In the test with Veronica persica (post-emergence, dosage 80 g/ha), the “herbicidal action VERPE” value was determined as 100%. For the same compound, the “herbicidal action ALOMY” value in the test with Alopecurus myosuroides (post-emergence, dosage 80 g/ha) is given as 100%. Also, in the test with Setaria viridis (post-emergence, dosage 80 g/ha), the “herbicidal action SETVI” value worked out at 100%.
On to `Cc1c(C(=O)Nc2nnnn2C)ccc(C(F)(F)F)c1C[S+](C)[O-]` (stereo not drawn) [Example 1-84], for which the “herbicidal activity ECHCG” value with Echinochloa crus-galli is 100%. Also, the “herbicidal action AVEFA” value in the test on Avena fatua (post-emergence, dosage 80 g/ha) turned out to be 90%. The “herbicidal activity VIOTR” value in the test on Viola tricolor is given as 100%. Moreover, the “herbicidal action VERPE” value with Veronica persica (post-emergence, dosage 80 g/ha) stood at 100%. The “herbicidal action ALOMY” value with Alopecurus myosuroides (post-emergence, dosage 80 g/ha) is given as 80%. Further, the “herbicidal action SETVI” value in the test on Setaria viridis (post-emergence, dosage 80 g/ha) was determined as 100%.
For the compound `CCSCc1c(C(F)(F)F)ccc(C(=O)Nc2nnnn2CC)c1Br` [Example 2-383], in the test on Echinochloa crus-galli, the “herbicidal activity ECHCG” value turned out to be 100%. The “herbicidal action AVEFA” value in the test on Avena fatua (post-emergence, dosage 80 g/ha) came out at 100%. In addition, the “herbicidal activity VIOTR” value in the test on Viola tricolor came out at 100%. For the same compound, the “herbicidal action VERPE” value with Veronica persica (post-emergence, dosage 80 g/ha) was found to be 100%. Further, in the test on Alopecurus myosuroides (post-emergence, dosage 80 g/ha), the “herbicidal action ALOMY” value turned out to be 80%. The “herbicidal action SETVI” value in the test on Setaria viridis (post-emergence, dosage 80 g/ha) is 100%.
Take `CCn1nnnc1NC(=O)c1ccc(C(F)F)c(CSC)c1C` [Example 2-107]: the “herbicidal activity ECHCG” value with Echinochloa crus-galli turned out to be 100%. The “herbicidal action AVEFA” value with Avena fatua (Dosage 80 g/ha) was determined as 80. Further, the “herbicidal activity VIOTR” value in the test on Viola tricolor is 100%. Moreover, the “herbicidal action VERPE” value in the test with Veronica persica (Dosage 80 g/ha) is given as 100. The “herbicidal action ALOMY” value in the test on Alopecurus myosuroides (Dosage 80 g/ha) turned out to be 80. The “herbicidal action SETVI” value with Setaria viridis (Dosage 80 g/ha) was determined as 90.
